We go through 2 substances from article PMC8707700, “Ru(III) Complexes with Lonidamine-Modified Ligands” (International Journal of Molecular Sciences, 2021).

Read-outs that look alike come from different tables or passages of the source. A value given as a limit tells only on which side of the number the result lay.

The Ki is the equilibrium dissociation constant of an inhibitor or competing ligand from its target. One may read the IC50 as the point on the concentration scale where inhibition reaches its midpoint.

Data set [1] is described as follows: Stability of Ru(III) complexes in phosphate buffer by UV-vis spectrophotometry. In kind it is physicochemical. The conditions noted are these: 20 mM phosphate buffer pH 7.4, 100 mM NaCl, 37 °C. As for the experimental part: The stability of Ru(III) complexes (15–20) was investigated in a solution resembling physiological conditions (20 mM of phosphate buffer, pH 7.4, and 100 mM of NaCl at 37 °C) by UV-vis spectrophotometry (Table 1). The half-transformation time t1/2 was calculated based on changes in the electronic absorption spectrum (Figure S1) and defined as the value of t at the Alin/2 point. ΔA(t) was plotted against λmax; the initial section was approximated as a linear function.
The stability of Ru(III) complexes was studied by electron absorption spectroscopy in 20 mM of phosphate buffer, pH 7.4, and 100 mM of NaCl. The working solution (2 mL, 200 μM complex) was prepared by diluting 10 μL of the original 40 mM solution in DMSO and 1.99 mL of phosphate buffer. UV-vis spectra were recorded every 60 s in the range of 280–600 nm at 37 °C. The half-transformation time was t1/2. For λmax, ΔA(t) was plotted, where ΔA = A0–Ai, an initial section, was approximated as a linear function. At ΔAline./2 point calculated as t = t1/2.

For data set [2], the target named is T1, TrxR1 in rat liver extracts (Rattus norvegicus, UniProt O89049).
T1 construct: measured in the extracts from the liver of male white outbred rats; from tissue; host or cells: liver of male white outbred rats (homogenate supernatant)
T1 sequence (O89049 1-499): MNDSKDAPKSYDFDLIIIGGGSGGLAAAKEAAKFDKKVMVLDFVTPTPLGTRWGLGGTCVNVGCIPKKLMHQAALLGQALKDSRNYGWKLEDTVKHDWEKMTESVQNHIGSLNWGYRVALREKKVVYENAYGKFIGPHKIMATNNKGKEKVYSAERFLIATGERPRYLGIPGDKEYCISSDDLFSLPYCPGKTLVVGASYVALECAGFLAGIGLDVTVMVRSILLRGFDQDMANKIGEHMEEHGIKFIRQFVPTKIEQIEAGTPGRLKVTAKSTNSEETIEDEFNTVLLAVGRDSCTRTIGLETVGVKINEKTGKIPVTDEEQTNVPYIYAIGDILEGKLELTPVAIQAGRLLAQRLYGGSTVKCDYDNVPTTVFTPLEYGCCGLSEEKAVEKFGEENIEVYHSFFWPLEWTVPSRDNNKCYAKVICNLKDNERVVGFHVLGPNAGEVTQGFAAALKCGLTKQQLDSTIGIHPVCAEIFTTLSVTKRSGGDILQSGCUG
As to the kind of experiment: Inhibition of TrxR1 in rat liver extracts. As to conditions: for mechanism of inhibition: efficacy independent of DTNB concentration; for Ki: estimated according to the Cheng–Prusoff equation, read-out: Ki (inhibition constant); for IC50: rat liver extracts, read-out: TrxR1 IC50, µM (95% C.I.). In kind it is biochemical. As for the experimental part:
The TrxR1 enzyme was measured in the extracts from the liver of male white outbred rats homogenised in 50 mM of PBS containing 1 mM of EDTA and centrifuged for 15 min at 10,000 rpm at 4 °C. The supernatant was adjusted to 7.5 µg/mL of protein as determined with pyrogallol red. Then, 40 μL of the enzyme solution was mixed with 10 μL of the test compounds in a 96-well clear flat bottom plate. After 10 min at 25 °C, 30 μL of PBS containing 0.7 mg/mL of BSA and 0.8 mM of NADPH was added. After 15 min at 25 °C, 20 µL of DTNB solution was added to the desired final concentrations. Kinetic studies were carried out by assaying TrxR1 at various concentrations of DTNB. The optical density of the samples was measured with an Infinite M200 Pro reader (Tecan, Grödig, Austria) at 412 nm every 30 s for 20 min. The activity of TrxR1 was calculated as a reaction slope relative to the control wells using Prism 8.0 (GraphPad, Inc., San Diego, CA, USA).

Another data set has as its system A549. As to the kind of experiment: Antiproliferative activity, MTT assay. In kind it is cell-based, human. As to conditions: MTT, 72 h exposure; mean ± SD; read-out: IC50, µM A549. Here is the method: (§1) The antiproliferative activity of new ligands and complexes was determined against human cell lines, including colon adenocarcinoma SW480, breast adenocarcinoma MCF-7, lung adenocarcinoma A549, neuroblastoma SHSY5Y, and non-tumourigenic HaCaT (Table 4). In general, complexes were more cytotoxic compared to ligands, lonidamine, and, in some cases, cisplatin. […] We chose this compound and the synthetically accessible complex 16 for mechanistic studies.
(§2) The antiproliferative activity was studied by MTT assays as published previously. For flow cytometry studies, cells were plated into 6-well plates (Eppendorf, Germany; 4 × 10^5 cells in 2 mL of DMEM) and incubated for 24 h. Solutions of complexes in DMSO were prepared immediately prior to the day of the experiments. Cells were treated with either 20 µM of cisplatin, 50 µM of 16, or 20 µM of 20. Concentrations corresponded to two-fold IC50 values based on MTT assays. Cells were incubated for 24 h, pooled, washed with cold PBS, and resuspended in DMEM. Aliquots of cells were processed as recommended in the Muse Annexin V&Dead Cell Kit or Muse Caspase-3/7 Kit (Luminex). Measurements were carried out on a Muse Cell Analyser, Luminex corp., TX, USA.
A general note: Tetrazolium assays rely on reduction of a dye to a coloured formazan, in cell work by metabolically active cells.

For a further data set, the system named is MCF-7. As to the kind of experiment: Antiproliferative activity, MTT assay. Format: cell-based, human. The conditions noted are these: MTT, 72 h exposure; mean ± SD; read-out: IC50, µM MCF-7. As for the experimental part: as §1, §2
The test system of the next data set is SH-SY5Y. Kind of data set: Antiproliferative activity, MTT assay. In kind it is cell-based, human. As to conditions: 72 h exposure, mean ± SD. Here is the method: as §1, §2
In another data set the test system is SW480. Kind of data set: Antiproliferative activity, MTT assay. Format: cell-based, human. As to conditions: MTT, 72 h exposure; mean ± SD; read-out: IC50, µM SW480. Here is the method:
as §1, §2

The next data set deals with HCT116 cells. Kind of data set: Annexin V/7-AAD flow cytometry (Muse Annexin V & Dead Cell Kit). Format: cell-based. The conditions noted are these: HCT116, 24 h; for Annexin V-positive cells: 2xIC50 (50 µM of 16, 20 µM of 20); for early apoptosis (Annexin V/7-AAD) / late apoptosis (Annexin V/7-AAD) / live cells (Annexin V/7-AAD) / necrosis (Annexin V/7-AAD): 2xIC50, one representative experiment. As for the experimental part: Mechanisms of cell death, that is, Annexin V/7-AAD reactivity and caspase 3/7 activation, were determined for 16 and 20 in HCT116 cells using the Muse® Annexin V & Dead Cell Kit (Luminex corp., Austin, TX, USA) and flow cytometry. Cells were incubated with 16, 20, or cisplatin (reference drug) for 24 h at concentrations corresponding to 2xIC50 values (obtained in MTT assays; Table 4). The percentages of Annexin V-positive cells in response to 16 and 20 were higher than cisplatin (Figure 8). Complex 20 with the C12 linker induced Annexin V positivity slightly more efficiently than 16 with the C3 linker (27.4 ± 2.1% vs. 19.7 ± 0.6%).
as §2
For orientation: A flow cytometer gives signals particle by particle.

For “Na[trans-Ru(DMSO)(C30H37Cl2N5O)Cl4] [Compound 20]”, the “t1/2 (half-transformation time)” value in data set [1] is ~ 35 min; in data set [1] (mean ± SD, three experiments), 2150 ± 110 s. The mechanism of inhibition entry in data set [2] is “non-competitive”. Moreover, the Ki in data set [2] was 15.3 µM. Also, the IC50 worked out at 17 µM in data set [2] (DTNB 0.06 mM); 15 µM in data set [2] (DTNB 0.1 mM); 15 µM in data set [2] (DTNB 2.5 mM); 8.1 ± 1.1 µM in the data set on A549; 9.2 ± 0.1 µM in the data set on MCF-7; 6.1 ± 0.3 µM with SH-SY5Y. Moreover, the IC50 in the data set on SW480 amounted to 9.6 ± 1.3 µM. For the same substance, in the data set on HCT116 cells, the “Annexin V-positive cells” value was 27.4 ± 2.1%. The “early apoptosis (Annexin V/7-AAD)” value with HCT116 cells was 5%. The “late apoptosis (Annexin V/7-AAD)” value in the data set with HCT116 cells came to 26%. Also, in the data set on HCT116 cells, the “live cells (Annexin V/7-AAD)” value came out at 69%. Moreover, the “necrosis (Annexin V/7-AAD)” value with HCT116 cells stood at 0%.
As to “Na[trans-Ru(DMSO)(C21H19Cl2N5O)Cl4] [Compound 16]”, the “t1/2 (half-transformation time)” value in data set [1] (mean ± SD, three experiments) was 330 ± 20 s. Besides, the mechanism of inhibition entry in data set [2] is “non-competitive”. For the same substance, in data set [2], the Ki was 30.7 µM. Also, the IC50 was 24 µM in data set [2] (DTNB 0.06 mM); 33 µM in data set [2] (DTNB 0.1 mM); 33 µM in data set [2] (DTNB 2.5 mM); greater than 30 µM in the data set on A549; 23 ± 0.5 µM with MCF-7; 26.1 ± 5.5 µM in the data set with SH-SY5Y. The 50% inhibitory concentration (IC50) with SW480 was 25 ± 7.1 µM. In addition, the “Annexin V-positive cells” value in the data set on HCT116 cells is 19.7 ± 0.6%. In addition, the “early apoptosis (Annexin V/7-AAD)” value with HCT116 cells stood at 3%. In the data set on HCT116 cells, the “late apoptosis (Annexin V/7-AAD)” value came out at 20%. In the data set with HCT116 cells, the “live cells (Annexin V/7-AAD)” value was 78%. Further, the “necrosis (Annexin V/7-AAD)” value in the data set with HCT116 cells is 0%.
